Source: ChEMBL document CHEMBL3046206, “Synthesis of new 4-(2,5-dimethylpyrrol-1-yl)/4-pyrrol-1-yl benzoic acid hydrazide analogs and some derived oxadiazole, triazole and pyrrole ring systems: a novel class of potential antibacterial, antifungal and antitubercular agents” (Med Chem Res, 2013)
pIC50: −log10 of the molar value. In brackets after ≈: the same amount, converted by molar mass.

Experiments:
Enterococcus faecalis = experiment: Antibacterial activity against Enterococcus faecalis after 18 hr by broth microdilution technique; type: functional
Saccharomyces cerevisiae = experiment: Antifungal activity against Saccharomyces cerevisiae after 18 hr by broth microdilution technique; type: functional
Candida tropicalis = experiment: Antifungal activity against Candida tropicalis after 18 hr by broth microdilution technique; type: functional
Escherichia coli = experiment: Antibacterial activity against Escherichia coli after 18 hr by broth microdilution technique; type: functional
Aspergillus niger = experiment: Antifungal activity against Aspergillus niger after 18 hr by broth microdilution technique; type: functional
A549 = experiment: Cytotoxicity against Homo sapiens (human) A549 cells after 72 hr by MTT assay; type: cell-based; conditions: A549, 72 h
[1] = system: Mycobacterium tuberculosis; experiment: Antimycobacterial activity against Mycobacterium tuberculosis H37Rv after 21 days by broth dilution method; type: functional; conditions: 504 h
Pseudomonas aeruginosa = experiment: Antibacterial activity against Pseudomonas aeruginosa after 18 hr by broth microdilution technique; type: functional
Staphylococcus aureus = experiment: Antibacterial activity against Staphylococcus aureus after 18 hr by broth microdilution technique; type: functional
Klebsiella pneumoniae = experiment: Antibacterial activity against Klebsiella pneumoniae after 18 hr by broth microdilution technique; type: functional
Bacillus subtilis = experiment: Antibacterial activity against Bacillus subtilis after 18 hr by broth microdilution technique; type: functional
Vero = experiment: Cytotoxicity against Chlorocebus aethiops (African green monkey) Vero cells after 72 hr by MTT assay; type: cell-based; conditions: Chlorocebus sabaeus

Structure (SMILES)	MIC (Enterococcus faecalis)	MIC (Saccharomyces cerevisiae)	MIC (Candida tropicalis)	MIC (Escherichia coli)	MIC (Aspergillus niger)	pIC50 (A549)	MIC [1]	MIC (Pseudomonas aeruginosa)	MIC (Staphylococcus aureus)	MIC (Klebsiella pneumoniae)	MIC (Bacillus subtilis)	pIC50 (Vero)
O=C(NNC(=O)c1ccccc1Br)c1ccc(-n2cccc2)cc1	62.5 µg/mL (≈ 163 µM)	31.2 µg/mL (≈ 81.3 µM)	8 µg/mL (≈ 20.8 µM)	16 µg/mL (≈ 41.6 µM)	16 µg/mL (≈ 41.6 µM)	3.70	8 µg/mL (≈ 20.8 µM)	16 µg/mL (≈ 41.6 µM)	62.5 µg/mL (≈ 163 µM)	> 500 µg/mL	16 µg/mL (≈ 41.6 µM)	3.70
O=C(NNC(=O)c1ccc(F)c(C(F)(F)F)c1)c1ccc(-n2cccc2)cc1	31.2 µg/mL (≈ 79.9 µM)	16 µg/mL (≈ 40.9 µM)	4 µg/mL (≈ 10.2 µM)	8 µg/mL (≈ 20.4 µM)	8 µg/mL (≈ 20.4 µM)	3.70	8 µg/mL (≈ 20.4 µM)	8 µg/mL (≈ 20.4 µM)	62.5 µg/mL (≈ 160 µM)	> 500 µg/mL	16 µg/mL (≈ 40.9 µM)	3.71
Brc1ccc(-c2nnc(-c3ccc(-n4cccc4)cc3)o2)cc1	16 µg/mL (≈ 43.7 µM)	31.2 µg/mL (≈ 85.3 µM)	4 µg/mL (≈ 10.9 µM)	4 µg/mL (≈ 10.9 µM)	8 µg/mL (≈ 21.8 µM)	3.58	2 µg/mL (≈ 5.46 µM)	8 µg/mL (≈ 21.8 µM)	31.2 µg/mL (≈ 85.3 µM)	> 500 µg/mL	4 µg/mL (≈ 10.9 µM)	3.58
Cc1ccc(C)n1-c1ccc(C(=O)N/N=C/c2ccccc2)cc1	62.5 µg/mL (≈ 197 µM)	62.5 µg/mL (≈ 197 µM)	31.2 µg/mL (≈ 98.5 µM)	62.5 µg/mL (≈ 197 µM)	31.2 µg/mL (≈ 98.5 µM)		31.2 µg/mL (≈ 98.5 µM)	62.5 µg/mL (≈ 197 µM)	31.2 µg/mL (≈ 98.5 µM)	62.5 µg/mL (≈ 197 µM)	31.2 µg/mL (≈ 98.5 µM)	
Cc1ccc(C)n1-c1ccc(-c2nnc(S)o2)cc1	4 µg/mL (≈ 14.7 µM)	8 µg/mL (≈ 29.5 µM)	2 µg/mL (≈ 7.37 µM)	62.5 µg/mL (≈ 230 µM)	8 µg/mL (≈ 29.5 µM)	3.60	2 µg/mL (≈ 7.37 µM)	62.5 µg/mL (≈ 230 µM)	2 µg/mL (≈ 7.37 µM)	62.5 µg/mL (≈ 230 µM)	4 µg/mL (≈ 14.7 µM)	3.58
NNC(=O)c1ccncc1 [ISONIAZID]						< 3.35	0.25 µg/mL (≈ 1.82 µM)					< 3.35
C/C(=N/NC(=O)c1ccc(-n2c(C)ccc2C)cc1)c1ccccc1	31.2 µg/mL (≈ 94.3 µM)	62.5 µg/mL (≈ 189 µM)	62.5 µg/mL (≈ 189 µM)	500 µg/mL (≈ 1510 µM)	62.5 µg/mL (≈ 189 µM)		31.2 µg/mL (≈ 94.3 µM)	500 µg/mL (≈ 1510 µM)	62.5 µg/mL (≈ 189 µM)	500 µg/mL (≈ 1510 µM)	16 µg/mL (≈ 48.3 µM)	
O=C(NNC(=O)c1ccc([N+](=O)[O-])cc1)c1ccc(-n2cccc2)cc1	31.2 µg/mL (≈ 89.2 µM)	31.2 µg/mL (≈ 89.2 µM)	31.2 µg/mL (≈ 89.2 µM)	16 µg/mL (≈ 45.7 µM)	31.2 µg/mL (≈ 89.2 µM)	3.70	8 µg/mL (≈ 22.8 µM)	16 µg/mL (≈ 45.7 µM)	62.5 µg/mL (≈ 178 µM)	> 500 µg/mL	16 µg/mL (≈ 45.7 µM)	3.72
Brc1ccccc1-c1nnc(-c2ccc(-n3cccc3)cc2)o1	31.2 µg/mL (≈ 85.3 µM)	31.2 µg/mL (≈ 85.3 µM)	4 µg/mL (≈ 10.9 µM)	8 µg/mL (≈ 21.8 µM)	16 µg/mL (≈ 43.7 µM)	3.60	8 µg/mL (≈ 21.8 µM)	8 µg/mL (≈ 21.8 µM)	31.2 µg/mL (≈ 85.3 µM)	> 500 µg/mL	8 µg/mL (≈ 21.8 µM)	3.59
Fc1ccc(-c2nnc(-c3ccc(-n4cccc4)cc3)o2)cc1C(F)(F)F	8 µg/mL (≈ 21.4 µM)	4 µg/mL (≈ 10.7 µM)	2 µg/mL (≈ 5.36 µM)	2 µg/mL (≈ 5.36 µM)	4 µg/mL (≈ 10.7 µM)	3.57	1 µg/mL (≈ 2.68 µM)	2 µg/mL (≈ 5.36 µM)	31.2 µg/mL (≈ 83.7 µM)	> 500 µg/mL	1 µg/mL (≈ 2.68 µM)	3.57
CC(=O)N1N=C(c2ccc(-n3c(C)ccc3C)cc2)OC1c1c(Cl)cccc1Cl (centres undefined)	2 µg/mL (≈ 4.67 µM)	16 µg/mL (≈ 37.4 µM)	4 µg/mL (≈ 9.34 µM)	16 µg/mL (≈ 37.4 µM)	4 µg/mL (≈ 9.34 µM)	3.65	2 µg/mL (≈ 4.67 µM)	8 µg/mL (≈ 18.7 µM)	2 µg/mL (≈ 4.67 µM)	62.5 µg/mL (≈ 146 µM)	4 µg/mL (≈ 9.34 µM)	3.66
CCn1cc(C(=O)O)c(=O)c2cc(F)c(N3CCNCC3)cc21 [NORFLOXACIN]	< 5 µg/mL			≤ 1 µg/mL				> 5 µg/mL	< 5 µg/mL	≤ 1 µg/mL	≤ 1 µg/mL	
O=C(NNC(=O)c1ccc(-n2cccc2)cc1)c1ccccc1	62.5 µg/mL (≈ 205 µM)	31.2 µg/mL (≈ 102 µM)	31.2 µg/mL (≈ 102 µM)	31.2 µg/mL (≈ 102 µM)	31.2 µg/mL (≈ 102 µM)	3.67	8 µg/mL (≈ 26.2 µM)	62.5 µg/mL (≈ 205 µM)	62.5 µg/mL (≈ 205 µM)	> 500 µg/mL	16 µg/mL (≈ 52.4 µM)	3.70
O=[N+]([O-])c1ccccc1-c1nnc(-c2ccc(-n3cccc3)cc2)o1	16 µg/mL (≈ 48.1 µM)	31.2 µg/mL (≈ 94 µM)	31.2 µg/mL (≈ 94 µM)	4 µg/mL (≈ 12 µM)	31.2 µg/mL (≈ 94 µM)	3.57	2 µg/mL (≈ 6.02 µM)	4 µg/mL (≈ 12 µM)	31.2 µg/mL (≈ 94 µM)	> 500 µg/mL	4 µg/mL (≈ 12 µM)	3.57
Cc1ccc(C)n1-c1ccc(C(=O)N/N=C/c2c(Cl)cccc2Cl)cc1	16 µg/mL (≈ 41.4 µM)	31.2 µg/mL (≈ 80.9 µM)	4 µg/mL (≈ 10.4 µM)	500 µg/mL (≈ 1290 µM)	4 µg/mL (≈ 10.4 µM)		16 µg/mL (≈ 41.4 µM)	500 µg/mL (≈ 1290 µM)	16 µg/mL (≈ 41.4 µM)	500 µg/mL (≈ 1290 µM)	16 µg/mL (≈ 41.4 µM)	
